Test results as given in patent publication US20100041089A1, “IMPROVED METHOD FOR DETECTING CHEMICAL […]” (priority 2006, published 2010).

Test system: yeast genes (expressed mRNA)
Assay: DNA chip measurement of expressed mRNA of yeast genes after culture with a toxic chemical substance
Format: cell-based, Saccharomyces cerevisiae S288C
Conditions: for level of expressed mRNA in the presence of chemical substance / level in the absence of chemical substance: cultured two hours with the chemical substance; for The level of expressed mRNA in the presence of chemical substance/The level of expressed mRNA in the absence of chemical substance: cultured two hours with substance
Procedure, shortened: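 Two-hour exposure of growing S. cerevisiae S288C (YPD, 25° C) to a sublethal toxicant preceded RNA isolation. Fluorescent cDNA was hybridized to a whole-genome array; a treated-to-untreated signal ratio of two or more was taken as significant.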

Structure (SMILES): Cl[C@H]1[C@H](Cl)[C@@H](Cl)[C@@H](Cl)[C@H](Cl)[C@H]1Cl [(7), γ-Hexachlorocyclohexane]
- level of expressed mRNA in the presence of chemical substance / level in the absence of chemical substance (yeast gene YDR133C): 0.2
- level of expressed mRNA in the presence of chemical substance / level in the absence of chemical substance (yeast gene YDR250C): 1.0
- level of expressed mRNA in the presence of chemical substance / level in the absence of chemical substance (yeast gene YDR278C): 0.7
- level of expressed mRNA in the presence of chemical substance / level in the absence of chemical substance (yeast gene YDR281C): 0.6
- The level of expressed mRNA in the presence of chemical substance/The level of expressed mRNA in the absence of chemical substance (yeast gene YDR330W): 1.3
- level of expressed mRNA in the presence of chemical substance / level in the absence of chemical substance (yeast gene YDR366C): 1.5
- The level of expressed mRNA in the presence of chemical substance/The level of expressed mRNA in the absence of chemical substance (yeast gene YDR411C): 2.0
- The level of expressed mRNA in the presence of chemical substance/The level of expressed mRNA in the absence of chemical substance (yeast gene YDR511W): 1.5
- The level of expressed mRNA in the presence of chemical substance/The level of expressed mRNA in the absence of chemical substance (yeast gene YDR545W): 1.2
- The level of expressed mRNA in the presence of chemical substance/The level of expressed mRNA in the absence of chemical substance (yeast gene YEL001C): 1.1
- The level of expressed mRNA in the presence of chemical substance/The level of expressed mRNA in the absence of chemical substance (yeast gene YER004W): 1.4
- The level of expressed mRNA in the presence of chemical substance/The level of expressed mRNA in the absence of chemical substance (yeast gene YER035W): 1.9
- The level of expressed mRNA in the presence of chemical substance/The level of expressed mRNA in the absence of chemical substance (yeast gene YER079W): 1.9
- The level of expressed mRNA in the presence of chemical substance/The level of expressed mRNA in the absence of chemical substance (yeast gene YER106W): 1.0
- The level of expressed mRNA in the presence of chemical substance/The level of expressed mRNA in the absence of chemical substance (yeast gene YER158C): 1.2
- The level of expressed mRNA in the presence of chemical substance/The level of expressed mRNA in the absence of chemical substance (yeast gene YER163C): 1.5
- The level of expressed mRNA in the presence of chemical substance/The level of expressed mRNA in the absence of chemical substance (yeast gene YER175C): 2.3
- The level of expressed mRNA in the presence of chemical substance/The level of expressed mRNA in the absence of chemical substance (yeast gene YFL006W): 1.0
- The level of expressed mRNA in the presence of chemical substance/The level of expressed mRNA in the absence of chemical substance (yeast gene YFL010C): 1.5
- The level of expressed mRNA in the presence of chemical substance/The level of expressed mRNA in the absence of chemical substance (yeast gene YFL024C): 3.3
- The level of expressed mRNA in the presence of chemical substance/The level of expressed mRNA in the absence of chemical substance (yeast gene YFL032W): 1.1
- level of expressed mRNA in the presence of chemical substance / level in the absence of chemical substance (yeast gene YFR026C): 1.3
- The level of expressed mRNA in the presence of chemical substance/The level of expressed mRNA in the absence of chemical substance (yeast gene YGL037C): 2.9
- The level of expressed mRNA in the presence of chemical substance/The level of expressed mRNA in the absence of chemical substance (yeast gene YGL047W): 1.7
- The level of expressed mRNA in the presence of chemical substance/The level of expressed mRNA in the absence of chemical substance (yeast gene YGL053W): 3.7
- level of expressed mRNA in the presence of chemical substance / level in the absence of chemical substance (yeast gene YGL088W): 1.0
- The level of expressed mRNA in the presence of chemical substance/The level of expressed mRNA in the absence of chemical substance (yeast gene YGL121C): 4.7
- The level of expressed mRNA in the presence of chemical substance/The level of expressed mRNA in the absence of chemical substance (yeast gene YGL199C): 1.3
- level of expressed mRNA in the presence of chemical substance / level in the absence of chemical substance (yeast gene YGR038W): 1.1
- The level of expressed mRNA in the presence of chemical substance/The level of expressed mRNA in the absence of chemical substance (yeast gene YGR101W): 1.5
- The level of expressed mRNA in the presence of chemical substance/The level of expressed mRNA in the absence of chemical substance (yeast gene YGR110W): 1.7
- The level of expressed mRNA in the presence of chemical substance/The level of expressed mRNA in the absence of chemical substance (yeast gene YGR130C): 1.3
- level of expressed mRNA in the presence of chemical substance / level in the absence of chemical substance (yeast gene YGR139W): 0.8
- The level of expressed mRNA in the presence of chemical substance/The level of expressed mRNA in the absence of chemical substance (yeast gene YGR154C): 2.0
- The level of expressed mRNA in the presence of chemical substance/The level of expressed mRNA in the absence of chemical substance (yeast gene YGR221C): 1.2
- level of expressed mRNA in the presence of chemical substance / level in the absence of chemical substance (yeast gene YGR243W): 1.9
- level of expressed mRNA in the presence of chemical substance / level in the absence of chemical substance (yeast gene YGR293C): 1.3
- level of expressed mRNA in the presence of chemical substance / level in the absence of chemical substance (yeast gene YHL006C): 1.2
- level of expressed mRNA in the presence of chemical substance / level in the absence of chemical substance (yeast gene YHR095W): 0.8
- level of expressed mRNA in the presence of chemical substance / level in the absence of chemical substance (yeast gene YHR105W): 0.9
- The level of expressed mRNA in the presence of chemical substance/The level of expressed mRNA in the absence of chemical substance (yeast gene YHR138C): 3.0
- level of expressed mRNA in the presence of chemical substance / level in the absence of chemical substance (yeast gene YHR181W): 0.8
- The level of expressed mRNA in the presence of chemical substance/The level of expressed mRNA in the absence of chemical substance (yeast gene YHR199C): 1.1
- The level of expressed mRNA in the presence of chemical substance/The level of expressed mRNA in the absence of chemical substance (yeast gene YIL023C): 1.2
- The level of expressed mRNA in the presence of chemical substance/The level of expressed mRNA in the absence of chemical substance (yeast gene YIL041W): 0.8
- The level of expressed mRNA in the presence of chemical substance/The level of expressed mRNA in the absence of chemical substance (yeast gene YIL087C): 1.8
- level of expressed mRNA in the presence of chemical substance / level in the absence of chemical substance (yeast gene YIL127C): 0.6
- level of expressed mRNA in the presence of chemical substance / level in the absence of chemical substance (yeast gene YJL017W): 0.2
- level of expressed mRNA in the presence of chemical substance / level in the absence of chemical substance (yeast gene YJL037W): 1.2
- The level of expressed mRNA in the presence of chemical substance/The level of expressed mRNA in the absence of chemical substance (yeast gene YJL057C): 2.7
- The level of expressed mRNA in the presence of chemical substance/The level of expressed mRNA in the absence of chemical substance (yeast gene YJL066C): 1.6
- The level of expressed mRNA in the presence of chemical substance/The level of expressed mRNA in the absence of chemical substance (yeast gene YJL082W): 0.4
- level of expressed mRNA in the presence of chemical substance / level in the absence of chemical substance (yeast gene YJL097W): 1.0
